Laboratory results published in the supplement of paper PMC11208160.

experiment: recombinant barcode read abundance after kanamycin selection (control-corrected) (log10(CPM+1)); higher = more efficient recombination; sequences stand for … in AGTGCAGAGAAAATCGGCCAGTTTTCTCTGCCTGCAGTCCGCATGCCGT…AGATTTATGCAGCGGACTGCCTTTCTCCCAAAGTGATAAACCGGACAGTATCATGGACCGGTTTTCCCGGTAATCCGTATTTGCAAGGTTGGTTTCACT; site = the 11-nt target
Method in brief: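 In E. coli, a pooled library matched targets to IS621 bridge RNA target-binding loops and was introduced alongside a donor plasmid. Cells went onto chloramphenicol/ampicillin/kanamycin with 0.1 mM IPTG or onto chloramphenicol/ampicillin LB agar as control, in duplicate. Recombination efficiency, from recombinant-junction barcodes as counts per million, is averaged and control-corrected. It is reported as log10(CPM+1).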
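Further: IS621 recombinase and bridge RNA in Escherichia coli cells.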

**Q.** For “CGCTGGACTTGGGTTCTAACCTGTTGCCT (site CGCTCGACTAG)”, which “recombinant barcode read abundance (log10)” value is on record?
**A.** 0.0114

**Q.** With “CGCTGGACTTGGGTTCTAACCTGTTGCCT (site CGCTGGACTAG)” as the sequence, how does the “recombinant barcode read abundance (log10)” value read?
**A.** 0.158

**Q.** With “CGCTGGACTTGGGTTCTAACCTGTTGCCT (site CGCTTGACTAG)” as the sequence, how does the “recombinant barcode read abundance (log10)” value read?
**A.** 0.0799

**Q.** With “CGCTTGTCTTGGGTTCTAACCTGTTGCCT (site CGCTAGTCTAG)” as the sequence, how does the “recombinant barcode read abundance (log10)” value read?
**A.** 0.0576

**Q.** Which “recombinant barcode read abundance (log10)” value does the source give for “CGCTTGTCTTGGGTTCTAACCTGTTGCCT (site CGCTCGTCTAG)” here?
**A.** 0.00757

**Q.** For “CGCTTGTCTTGGGTTCTAACCTGTTGCCT (site CGCTGGTCTAG)”, which “recombinant barcode read abundance (log10)” value is on record?
**A.** 0.117

**Q.** For “CGCTTGTCTTGGGTTCTAACCTGTTGCCT (site CGCTTGTCTAG)”, which “recombinant barcode read abundance (log10)” value is on record?
**A.** 0.15

**Q.** With “CGGAAGTCTTGGGTTCTAACCTGTTGCCT (site CGGAAGACTAG)” as the sequence, how does the “recombinant barcode read abundance (log10)” value read?
**A.** 0.0548

**Q.** With “CGGAAGTCTTGGGTTCTAACCTGTTGCCT (site CGGAAGCCTAG)” as the sequence, how does the “recombinant barcode read abundance (log10)” value read?
**A.** 0.452

**Q.** With “CGGAAGTCTTGGGTTCTAACCTGTTGCCT (site CGGAAGGCTAG)” as the sequence, how does the “recombinant barcode read abundance (log10)” value read?
**A.** 0.247

**Q.** Which “recombinant barcode read abundance (log10)” value does the source give for “CGGAAGTCTTGGGTTCTAACCTGTTGCCT (site CGGAAGTCTAG)” here?
**A.** 1.7

**Q.** Which “recombinant barcode read abundance (log10)” value does the source give for “CGGAATCCTTGGGTTCTAACCTGTTGCAT (site CGGAATCCTAA)” here?
**A.** 0.297

**Q.** Which “recombinant barcode read abundance (log10)” value does the source give for “CGGAATCCTTGGGTTCTAACCTGTTGCAT (site CGGAATCCTAC)” here?
**A.** 0.841

**Q.** For “CGGAATCCTTGGGTTCTAACCTGTTGCAT (site CGGAATCCTAG)”, which “recombinant barcode read abundance (log10)” value is on record?
**A.** 0.29

**Q.** Which “recombinant barcode read abundance (log10)” value does the source give for “CGGAATCCTTGGGTTCTAACCTGTTGCAT (site CGGAATCCTAT)” here?
**A.** 1.15

**Q.** Which “recombinant barcode read abundance (log10)” value does the source give for “CGGAATCCTTGGGTTCTAACCTGTTGCTT (site CGGAATCCTAA)” here?
**A.** 0.9

**Q.** For “CGGAATCCTTGGGTTCTAACCTGTTGCTT (site CGGAATCCTAC)”, which “recombinant barcode read abundance (log10)” value is on record?
**A.** 0.0576

**Q.** Which “recombinant barcode read abundance (log10)” value does the source give for “CGGAATCCTTGGGTTCTAACCTGTTGCTT (site CGGAATCCTAG)” here?
**A.** 0.316

**Q.** For “CGGAATCCTTGGGTTCTAACCTGTTGCTT (site CGGAATCCTAT)”, which “recombinant barcode read abundance (log10)” value is on record?
**A.** 0.707

**Q.** With “CGGAGCCCTTGGGTTCTAACCTGTTGCAT (site CGCAGCCCTAT)” as the sequence, how does the “recombinant barcode read abundance (log10)” value read?
**A.** 0.0297

**Q.** Which “recombinant barcode read abundance (log10)” value does the source give for “CGGAGCCCTTGGGTTCTAACCTGTTGCAT (site CGGAGCCCTAT)” here?
**A.** 1.63

**Q.** With “CGGAGCTCTTGGGTTCTAACCTGTTGCCT (site CGAAGCTCTAG)” as the sequence, how does the “recombinant barcode read abundance (log10)” value read?
**A.** 0.58

**Q.** With “CGGAGCTCTTGGGTTCTAACCTGTTGCCT (site CGCAGCTCTAG)” as the sequence, how does the “recombinant barcode read abundance (log10)” value read?
**A.** 0.293

**Q.** For “CGGAGCTCTTGGGTTCTAACCTGTTGCCT (site CGGAGCTCTAG)”, which “recombinant barcode read abundance (log10)” value is on record?
**A.** 1.94

**Q.** For “CGGAGCTCTTGGGTTCTAACCTGTTGCCT (site CGTAGCTCTAG)”, which “recombinant barcode read abundance (log10)” value is on record?
**A.** 0.0387

**Q.** For “CGGATAGCTTGGGTTCTAACCTGTTGCCT (site CGGATAGCTAG)”, which “recombinant barcode read abundance (log10)” value is on record?
**A.** 0.885

**Q.** With “CGGATAGCTTGGGTTCTAACCTGTTGCCT (site CGGATCGCTAG)” as the sequence, how does the “recombinant barcode read abundance (log10)” value read?
**A.** 0.0282

**Q.** For “CGGATAGCTTGGGTTCTAACCTGTTGCCT (site CGGATGGCTAG)”, which “recombinant barcode read abundance (log10)” value is on record?
**A.** 0.153

**Q.** For “CGGATAGCTTGGGTTCTAACCTGTTGCCT (site CGGATTGCTAG)”, which “recombinant barcode read abundance (log10)” value is on record?
**A.** 0.553

**Q.** With “CGGATGGCTTGGGTTCTAACCTGTTGCCT (site CGGATAGCTAG)” as the sequence, how does the “recombinant barcode read abundance (log10)” value read?
**A.** 0.031

**Q.** For “CGGATGGCTTGGGTTCTAACCTGTTGCCT (site CGGATCGCTAG)”, which “recombinant barcode read abundance (log10)” value is on record?
**A.** 0.0869

**Q.** Which “recombinant barcode read abundance (log10)” value does the source give for “CGGATGGCTTGGGTTCTAACCTGTTGCCT (site CGGATGGCTAG)” here?
**A.** 0.64

**Q.** With “CGGATGGCTTGGGTTCTAACCTGTTGCCT (site CGGATTGCTAG)” as the sequence, how does the “recombinant barcode read abundance (log10)” value read?
**A.** 0.0444

**Q.** For “CGGATTGCTTGGGTTCTAACCTGTTGCCT (site CGGATAGCTAG)”, which “recombinant barcode read abundance (log10)” value is on record?
**A.** 0

**Q.** For “CGGATTGCTTGGGTTCTAACCTGTTGCCT (site CGGATCGCTAG)”, which “recombinant barcode read abundance (log10)” value is on record?
**A.** 0.0723

**Q.** Which “recombinant barcode read abundance (log10)” value does the source give for “CGGATTGCTTGGGTTCTAACCTGTTGCCT (site CGGATGGCTAG)” here?
**A.** 0.122

**Q.** For “CGGATTGCTTGGGTTCTAACCTGTTGCCT (site CGGATTGCTAG)”, which “recombinant barcode read abundance (log10)” value is on record?
**A.** 0.533

**Q.** Which “recombinant barcode read abundance (log10)” value does the source give for “CGGCACACTTGGGTTCTAACCTGTTGCGG (site CGGAACACTCC)” here?
**A.** 0.06

**Q.** Which “recombinant barcode read abundance (log10)” value does the source give for “CGGCACACTTGGGTTCTAACCTGTTGCGG (site CGGCACACTCC)” here?
**A.** 1.86

**Q.** Which “recombinant barcode read abundance (log10)” value does the source give for “CGGCACACTTGGGTTCTAACCTGTTGCGG (site CGGGACACTCC)” here?
**A.** 0.143

**Q.** With “CGGCACACTTGGGTTCTAACCTGTTGCGG (site CGGTACACTCC)” as the sequence, how does the “recombinant barcode read abundance (log10)” value read?
**A.** 0.582

**Q.** For “CGGCCACCTTGGGTTCTAACCTGTTGCTT (site AATGGGGCTCT)”, which “recombinant barcode read abundance (log10)” value is on record?
**A.** 0.0969

**Q.** For “CGGCCACCTTGGGTTCTAACCTGTTGCTT (site CGGCCACCTAA)”, which “recombinant barcode read abundance (log10)” value is on record?
**A.** 1.02

**Q.** Which “recombinant barcode read abundance (log10)” value does the source give for “CGGCCCACTTGGGTTCTAACCTGTTGCGG (site CGGCCCACTCC)” here?
**A.** 2.35

**Q.** Which “recombinant barcode read abundance (log10)” value does the source give for “CGGCCCACTTGGGTTCTAACCTGTTGCGG (site CGGGCCACTAC)” here?
**A.** 0.033

**Q.** Which “recombinant barcode read abundance (log10)” value does the source give for “CGGCCGCCTTGGGTTCTAACCTGTTGCTT (site CGGCCGCCTAA)” here?
**A.** 0.69

**Q.** With “CGGCCGCCTTGGGTTCTAACCTGTTGCTT (site GGGTCGCCTAA)” as the sequence, how does the “recombinant barcode read abundance (log10)” value read?
**A.** 0.0563

**Q.** For “CGGCTCCCTTGGGTTCTAACCTGTTGCTT (site CGGCTCCCTAA)”, which “recombinant barcode read abundance (log10)” value is on record?
**A.** 1.24

**Q.** With “CGGCTCCCTTGGGTTCTAACCTGTTGCTT (site GACACAACTTG)” as the sequence, how does the “recombinant barcode read abundance (log10)” value read?
**A.** 0.147

**Q.** For “CGGGCCACTTGGGTTCTAACCTGTTGCCT (site CAGGCCACTAG)”, which “recombinant barcode read abundance (log10)” value is on record?
**A.** 0.198

**Q.** Which “recombinant barcode read abundance (log10)” value does the source give for “CGGGCCACTTGGGTTCTAACCTGTTGCCT (site CCGGCCACTAG)” here?
**A.** 0.0207

**Q.** Which “recombinant barcode read abundance (log10)” value does the source give for “CGGGCCACTTGGGTTCTAACCTGTTGCCT (site CGGGCCACTAG)” here?
**A.** 0.442

**Q.** Which “recombinant barcode read abundance (log10)” value does the source give for “CGGGCCACTTGGGTTCTAACCTGTTGCCT (site CTGGCCACTAG)” here?
**A.** 0.177

**Q.** For “CGGGCCTCTTGGGTTCTAACCTGTTGCTG (site CGGGCCTCTAA)”, which “recombinant barcode read abundance (log10)” value is on record?
**A.** 0.504

**Q.** For “CGGGCCTCTTGGGTTCTAACCTGTTGCTG (site CGGGCCTCTCA)”, which “recombinant barcode read abundance (log10)” value is on record?
**A.** 2.82

**Q.** For “CGGGCCTCTTGGGTTCTAACCTGTTGCTG (site CGGGCCTCTGA)”, which “recombinant barcode read abundance (log10)” value is on record?
**A.** 0.217

**Q.** Which “recombinant barcode read abundance (log10)” value does the source give for “CGGGCCTCTTGGGTTCTAACCTGTTGCTG (site CGGGCCTCTTA)” here?
**A.** 0.872

**Q.** Which “recombinant barcode read abundance (log10)” value does the source give for “CGGGCGTCTTGGGTTCTAACCTGTTGCTA (site ATTCGAGCTAT)” here?
**A.** 0.116

**Q.** With “CGGGCGTCTTGGGTTCTAACCTGTTGCTA (site CGGGCGTCTTA)” as the sequence, how does the “recombinant barcode read abundance (log10)” value read?
**A.** 1.17

**Q.** With “CGGGCTACTTGGGTTCTAACCTGTTGCGG (site CGGGCTACTCC)” as the sequence, how does the “recombinant barcode read abundance (log10)” value read?
**A.** 3.05

**Q.** For “CGGGCTACTTGGGTTCTAACCTGTTGCGG (site GGGACTACTCC)”, which “recombinant barcode read abundance (log10)” value is on record?
**A.** 0.0963

**Q.** Which “recombinant barcode read abundance (log10)” value does the source give for “CGGGCTACTTGGGTTCTAACCTGTTGCTA (site CGGGCTACTTA)” here?
**A.** 1.79

**Q.** With “CGGGCTACTTGGGTTCTAACCTGTTGCTA (site GGGGCAACTTA)” as the sequence, how does the “recombinant barcode read abundance (log10)” value read?
**A.** 0.209

**Q.** Which “recombinant barcode read abundance (log10)” value does the source give for “CGGGGCCCTTGGGTTCTAACCTGTTGCTT (site CGGGGCCCTAA)” here?
**A.** 2.6

**Q.** For “CGGGGCCCTTGGGTTCTAACCTGTTGCTT (site GACTAGTCTCT)”, which “recombinant barcode read abundance (log10)” value is on record?
**A.** 0.167

**Q.** With “CGGGGTCCTTGGGTTCTAACCTGTTGCTA (site CGGAGTCCTTA)” as the sequence, how does the “recombinant barcode read abundance (log10)” value read?
**A.** 1.68
